Reference: paper PMC4945070 (PLoS Neglected Tropical Diseases, 2016)

How the values were obtained:
[1] = molecular target: H. contortus L-AChR1.4 (UNC-63, UNC-38, ACR-8, UNC-29.4) (Haemonchus contortus, UniProt A9XX24+D6MYF2+D6MYF3+D6MYF4); assay: cell-based; format: cell-based; settings: for Emax at 100 µM: agonists at 100 μM, normalized to 100 μM acetylcholine, read-out: Max. Current ± S.E.; for blocking of ACh elicited currents / Max Inhibition ± S.E.: dTC 100 μM, DHβE 10 μM, MECA 30 μM; for blocking of ACh elicited currents: 100 μM ACh; for Max Inhibition ± S.E.: inhibition of 100 μM ACh current
Description: (§1) The H. contortus cDNAs encoding AChR subunits and ancillary proteins were available as expression clones in the pTB207 vector and C. elegans expression clones were a gift from T. Boulin.. cRNA synthesis of each construct required NheI-linearized templates and was performed with the mMessage mMachine T7 Kit (Ambion) according to the manufacturer’s instructions. cRNAs were precipitated with lithium chloride and redissolved in RNAse-free water and stored at -80°C. cRNA concentration was determined using a Nanodrop spectrophotometer (Thermo Scientific) and cRNA purity and integrity was assessed by electrophoresis through a 1% gel stained with GreenGlo nucleic acid dye (Denville Scientific Inc.).
(§2) Oocytes were collected from mature Xenopus females according to standard procedures and incubated at 19°C in a ND96 solution (NaCl 96 mM, KCl 2 mM, CaCl2 1.8 mM, MgCl2 1 mM, and HEPES 5 mM, pH 7.3 supplemented with sodium pyruvate 2.5 mM). Defolliculated oocytes were injected into the animal pole with approximately 36 nL of a cRNA mix containing 50 ng/μL of each cRNA in RNAse-free water using the Nanoject system (Drummond Scientific, Broomall, PA). Negative controls consisted of oocytes injected with RNAse-free water. Oocytes were then stored at 19°C in ND96 for 5 days to allow receptor expression. In order to prevent activation of endogenous calcium-activated chloride channels, the oocytes were incubated in ND96 supplemented with 100 μM of the calcium chelator BAPTA-AM, 4h prior to recording.
(§3) Two-electrode voltage-clamp experiments were carried out using a perfusion system connected to a flat RC-1Z chamber (Harvard Apparatus). Glass electrodes were filled with 3M KCl and checked for resistance between 1 and 3 MΩ. The oocyte bath was connected to the ground through a 3 M KCl agar bridge. Agonist and antagonists were dissolved or diluted in recording solution (100 mM NaCl, 2.5 mM KCl, 1 mM CaCl2, 5 mM HEPES, pH 7.3). All measurements were performed using a Geneclamp 500B amplifier and Digidata 1322M (Axon Instruments), oocytes were voltage-clamped at -60 mV. Drug solutions were applied to oocytes by gravity flow using perfusion syringes directly connected to the chamber. Data were collected and analyzed using Clampex 9.2 and Clampfit 9.2 (Axon Instruments, Sunnyvale, CA, USA). Traces were filtered at 30 Hz and analyzed using GraphPad Prism 5.0 software (GraphPad Software, San Diego, CA, USA). Final results are presented as means ± SE.

[2] = tested on: C. elegans L-AChR subunits (Cel-unc-63, Cel-unc-38, Cel-lev-8, Cel-lev-1) with Hco-unc-29 paralog; assay: Two-electrode voltage clamp of C. elegans / H. contortus AChR subunit admixtures in Xenopus oocytes; format: cell-based
Text: To confirm that the LEV sensitivity rescue could be due to the functional incorporation of parasite protein into the C. elegans L-AChR, we injected into Xenopus oocytes, cRNA admixtures of the four essential C. elegans L-AChR subunits: Cel-unc-63, Cel-unc-38, Cel-lev-8 and Cel-lev-1, the three H. contortus accessory proteins: ric-3, unc-50 and unc-74, and the Cel-unc-29 or each Hco-unc-29 paralog in turn. Reconstitution of the C. elegans L-AChR with Cel-unc-29 produced functional channels as previously described, confirming that the H. contortus accessory proteins are functional between species. Omitting unc-29 produced no response, so any current produced using parasite genes must involve their incorporation into a functional L-AChR. […] UNC-29.1 produced an average of 500 μA currents, while the other three produced reproducible currents below 200 nA with UNC-29.2 producing the smallest response on average (S1 Fig).
as §1, with “Inc.). […]” for “Inc.).”
(§4) Two-electrode voltage-clamp experiments were carried out using a perfusion system connected to a flat RC-1Z chamber (Harvard Apparatus). […] Data were collected and analyzed using Clampex 9.2 and Clampfit 9.2 (Axon Instruments, Sunnyvale, CA, USA). Traces were filtered at 30 Hz and analyzed using GraphPad Prism 5.0 software (GraphPad Software, San Diego, CA, USA). […]

[3] = molecular target: H. contortus L-AChR1.1 with added UNC-29.2 (Haemonchus contortus, UniProt A9XX24+D6MYE9+D6MYF3+D6MYF4); assay: Two-electrode voltage clamp of L-AChR1.1 supplemented with unc-29.2 cRNA in Xenopus oocytes; format: cell-based
Text: Typically, such a situation can be identified by a change in the pharmacological properties of a receptor with addition of the second subunit. To address this, we examined the possibility that UNC-29.2 may interfere with or modify the properties of the reconstituted L-AChR1.1. We prepared oocytes injected with cRNAs to express the H. contortus L-AChR1.1 and supplemented this with an increasing (0.2, 1, 5 times) concentration of cRNA for UNC-29.2 relative to UNC-29.1.
as §1, §2, §3

[4] = molecular target: H. contortus L-AChR1.3 (UNC-63, UNC-38, ACR-8, UNC-29.3) (Haemonchus contortus, UniProt A9XX24+D6MYF1+D6MYF3+D6MYF4); assay: cell-based; settings: for Emax at 100 µM: agonists at 100 μM, normalized to 100 μM acetylcholine, read-out: Max. Current ± S.E.; for blocking of ACh elicited currents / Max Inhibition ± S.E.: dTC 100 μM, DHβE 10 μM, MECA 30 μM; for blocking of ACh elicited currents: 100 μM ACh; for Max Inhibition ± S.E.: inhibition of 100 μM ACh current
Description: as §1, §2, §3

[5] = molecular target: H. contortus L-AChR1.1 (UNC-63, UNC-38, ACR-8, UNC-29.1) (Haemonchus contortus, UniProt A9XX24+D6MYE9+D6MYF3+D6MYF4); assay: cell-based; settings: for Emax at 100 µM: agonists at 100 μM, normalized to 100 μM acetylcholine, read-out: Max. Current ± S.E.; for blocking of ACh elicited currents / Max. Inhibition ± S.E.: dTC 100 μM, DHβE 10 μM, MECA 30 μM; for blocking of ACh elicited currents: 100 μM ACh; for Max. Inhibition ± S.E.: inhibition of 100 μM ACh current
Description: as §1, §2, §3

[6] = tested on: H. contortus L-AChR1.2 (UNC-63, UNC-38, ACR-8, UNC-29.2); format: cell-based, Haemonchus contortus
Description: as §1, §2
as §4, with “Apparatus). Glass electrodes were filled with 3M KCl and checked for resistance between 1 and 3 MΩ. The oocyte bath was connected to the ground through a 3 M KCl agar bridge.” for “Apparatus).”

| SMILES | Emax at 100 µM ([1]; L-AChR1.4) | Emax at 100 µM ([4]; L-AChR1.3) | Emax at 100 µM ([5]; L-AChR1.1) | blocking of ACh elicited currents ([1]; L-AChR1.4) | Max Inhibition ± S.E. ([1]; L-AChR1.4) | blocking of ACh elicited currents ([4]; L-AChR1.3) | Max Inhibition ± S.E. ([4]; L-AChR1.3) | blocking of ACh elicited currents ([5]; L-AChR1.1) | Max. Inhibition ± S.E. ([5]; L-AChR1.1) | also measured |
| --- | --- | --- | --- | --- | --- | --- | --- | --- | --- | --- |
| CC(=O)OCC[N+](C)(C)C [ACh, Acetylcholine chloride] | 100% | 100% | 100% | – | – | – | – | – | – | Max ACh Current ([1]; L-AChR1.4 (Hco-UNC-29.4)): ~500 nA; Hill ([1]; L-AChR1.4, Hill coefficient of concentration-response curve): 1.12 ± 0.04; average current on perfusion of 100 μM ACh ([2]; admixture with UNC-29.1): 500 μA; current on perfusion of 100 μM ACh ([2]; admixtures with the other three paralogs (UNC-29.2, UNC-29.3, UNC-29.4)): below 200 nA; effect of unc-29.2 cRNA on the pharmacological response ([3]; 0.2, 1, 5 times unc-29.2 cRNA relative to UNC-29.1): no effect; Hill ([3]; 29.1 : 29.2 cRNA 1 : 0.2): 0.91 ± 0.08; Hill ([3]; 29.1 : 29.2 cRNA 1 : 1): 0.96 ± 0.13; Hill ([3]; 29.1 : 29.2 cRNA 1 : 5): 1.09 ± 0.10; Max ACh Current ([4]; L-AChR1.3 (Hco-UNC-29.3)): ~1.5 μA; Hill ([4]; L-AChR1.3, Hill coefficient of concentration-response curve): 0.89 ± 0.05; Max ACh Current ([5]; L-AChR1.1 (Hco-UNC-29.1)): ~1.5 μA; Hill ([5]; L-AChR1.1, Hill coefficient of concentration-response curve): 0.88 ± 0.05; current in response to 100 μM perfusion ([6]; UNC-29.1 replaced by UNC-29.2, n = 18): failed to produce any detectable current; Max ACh Current ([6]; receptor with Hco-UNC-29.2): 0 μA |
| C[N+](C)(CCOc1ccccc1)Cc1ccccc1 [Bephenium, bephenium hydroxynaphtoate] | 6.45 ± 0.84% | 9.59 ± 0.83% | 13.9 ± 1.7% | – | – | – | – | – | – | – |
| COc1cc2c3cc1Oc1cc(ccc1O)C[C@@H]1c4c(cc(OC)c(O)c4Oc4ccc(cc4)C[C@@H]3N(C)CC2)CC[N+]1(C)C [D-turbocurarine, (+)-tubocurarine chloride hydrate] | – | – | – | efficiently blocked the ACh responses | 97.52 ± 1.09 | efficiently blocked the ACh responses | 99.98 ± 0.02 | efficiently blocked the ACh responses | 99.63 ± 0.35 | – |
| Br.CO[C@H]1CC=C2CCN3CCC4=C(CC(=O)OC4)[C@]23C1 [DHßE, Dihydro-berythroidine hydrobromide] | – | – | – | weak average inhibition | 16.51 ± 5.73 | weak average inhibition | 23.55 ± 1.94 | weak average inhibition | 15.98 ± 2.16 | – |
